Laboratory results from US7034000B2, “Peptides derived from the human amyloid precursor protein” (The Brigham and Women's Hospital, Inc., priority 2000, dated 2006).
Blank lines part the entries; values can stand above or below the molecule they belong to.

Assay: ferrozine based iron oxidation (ferroxidase) assay
Format: biochemical
Settings: for Vmax, rate of iron oxidation: another set of ferrozine-based assays, 0.5 μM each; for Vmax of iron oxidation: first set, 6.5 nM of protein; for ferroxidase activity when synthesized as a distinct peptide: statement in summary, no values
Protocol: Computer-based alignments of APP and H-ferritin were run using the Gap and Bestfit sequence alignment programs for Vax software. […] Bovine serum albumin (BSA) served as a negative control for these experiments since 6.5 μM BSA provided a 5-fold lower apparent rate of iron oxidation (an apparent reaction rate of 0.1 μM iron oxidized per minute). It was concluded that purified, secreted APP ectodomain specifically catalyzes the oxidation of 100-fold more iron per minute than the amount of APP present. This is an indication that APP harbors one or more sites for catalytic iron oxidation.
Using synthetic peptides, it was confirmed that sequences overlapping the newly identified FOX-1 domain in APP function as intrinsic ferroxidases. A peptide designated as “A2” (coding for residues 316 to 337 in APP-695)was tested. […] Ceruloplasmin (Cp) was used as a positive control since Cp is a known copper-dependent iron oxidase. […] The standard error for each of these reactions was less than 5%.
The known RERMS domain of APP (319 to 335 with respect to APP-695) is a cytoprotective region of APP and overlaps the A2 to peptide described above. […] The 827 sequence is HRBRMSQVMREWEEAERQAKNL (SEQ ID NO: 6), encoding 9 amino terminal amino acids that overlap with the RERMS peptide. In addition, 827 has 13 unique amino acids that align with the ferritin iron oxidase domain, as present in FOX-1. […] It was concluded that peptides spanning sequences from 316 to 346 of APP-695 can be used as agents to protect cells from iron catalyzed cellular damage.

Molecule: A2 peptide: synthetic peptide coding for residues 316 to 337 in APP-695, overlaps RERMS domain (CAPFFYGGCGGNRNNFDTEEYC; APP695; UniProt P05067 316-337, looked up, fragment)
- rate of iron oxidation compared with BSA or RNase-A (0.5 μM): significantly higher
- Vmax, rate of iron oxidation: 2.78 µM/min
- iron oxidase activity Vmax (second set, 0.5 μM peptide): 2.96 μM/min/0.5 μM peptide

Molecule: APP: purified, secreted human amyloid precursor protein ectodomain
- Vmax of iron oxidation: 0.5 µM/min
- iron oxidized per minute relative to the amount of APP present (purified, secreted APP ectodomain): 100 fold

Molecule: HRERMSQVMREWEEAERQAKNL (listed as Homo sapiens) [827 peptide, first 13 N-terminal amino acids of FOX-1 fused to nine amino acids from the RERMS domain of APP-695 (327–348)]
- Vmax, rate of iron oxidation: 7.36 µM/min

B1: Ceruloplasmin: known copper-dependent iron oxidase (ferroxidase), positive control (protein, UniProt P00450 20-1065, looked up)
Ceruloplasmin: KEKHYYIGIIETTWDYASDHGEKKLISVDTEHSNIYLQNGPDRIGRLYKKALYLQYTDETFRTTIEKPVWLGFLGPIIKAETGDKVYVHLKNLASRPYTFHSHGITYYKEHEGAIYPDNTTDFQRADDKVYPGEQYTYMLLATEEQSPGEGDGNCVTRIYHSHIDAPKDIASGLIGPLIICKKDSLDKEKEKHIDREFVVMFSVVDENFSWYLEDNIKTYCSEPEKVDKDNEDFQESNRMYSVNGYTFGSLPGLSMCAEDRVKWYLFGMGNEVDVHAAFFHGQALTNKNYRIDTINLFPATLFDAYMVAQNPGEWMLSCQNLNHLKAGLQAFFQVQECNKSSSKDNIRGKHVRHYYIAAEEIIWNYAPSGIDIFTKENLTAPGSDSAVFFEQGTTRIGGSYKKLVYREYTDASFTNRKERGPEEEHLGILGPVIWAEVGDTIRVTFHNKGAYPLSIEPIGVRFNKNNEGTYYSPNYNPQSRSVPPSASHVAPTETFTYEWTVPKEVGPTNADPVCLAKMYYSAVEPTKDIFTGLIGPMKICKKGSLHANGRQKDVDKEFYLFPTVFDENESLLLEDNIRMFTTAPDQVDKEDEDFQESNKMHSMNGFMYGNQPGLTMCKGDSVVWYLFSAGNEADVHGIYFSGNTYLWRGERRDTANLFPQTSLTLHMWPDTEGTFNVECLTTDHYTGGMKQKYTVNQCRRQSEDSTFYLGERTYYIAAVEVEWDYSPQREWEKELHHLQEQNVSNAFLDKGEFYIGSKYKKVVYRQYTDSTFRVPVERKAEEEHLGILGPQLHADVGDKVKIIFKNMATRPYSIHAHGVQTESSTVTPTLPGETLTYVWKIPERSGAGTEDSACIPWAYYSTVDQVKDLYSGLIGPLIVCRRPYLKVFNPRRKLEFALLFLVFDENESWYLDDNIKTYSDHPEKVNKDDEEFIESNKMHAINGRMFGNLQGLTMHVGDEVNWYLMGMGNEIDLHTVHFHGHSFQYKHRGVYSSDVFDIFPGTYQTLEMFPRTPGIWLLHCHVTDHIHAGMETTYTVLQNEDTKSG
- Vmax, rate of iron oxidation: 6.41 µM/min
- Vmax of iron oxidation: 5 µM/min
- reaction velocity (Vmax) (second set, 0.5 μM protein, n=6, positive control): 4.2 µM iron/min/0.5 µM protein

B2: RNase-A: negative control protein (protein, UniProt P61823 27-150, looked up)
Ribonuclease pancreatic: KETAAAKFERQHMDSSTSAASSSNYCNQMMKSRNLTKDRCKPVNTFVHESLADVQAVCSQKNVACKNGQTNCYQSYSTMSITDCRETGSSKYPNCAYKTTQANKHIIVACEGNPYVPVHFDASV
- apparent Vmax (second set, 0.5 μM, n=6, negative control): 1.96 µM iron/min/0.5 µM peptide

B3: RNaseTI: control protein in the second set of ferrozine-based assays (protein, UniProt P00651 27-130, looked up)
Guanyl-specific ribonuclease …: ACDYTCGSNCYSSSDVSTAQAAGYQLHEDGETVGSNSYPHKYNNYEGFDFSVSSPYYEWPILSSGDVYSGGSPGADRVVFNENNQLAGVITHTGASGNNFVECT
- Vmax, rate of iron oxidation: 1.05 µM/min

Next, values leading:

- ferroxidase activity when synthesized as a distinct peptide: has ferroxidase activity
Molecule: DGDEVEEEAEPYEEATERTTSIA (listed as Homo sapiens) [FOX-2, peptide corresponding to the complete FOX-2 domain, between amino acids 250 and 273 in APP-695]

- ferroxidase activity when synthesized as a distinct peptide: has ferroxidase activity
Molecule: REWEEAERQAKNLPKADKKAVIQH (listed as Homo sapiens) [FOX-1]
